Results reported in patent EP3996814B1, “USE OF A HERBAL EXTRACT COMPRISING VERBASCOSIDE AND AUCUBIN FOR THE TREATMENT OF OSTEOARTHRITIS OF THE KNEE” (Labiotre S.r.l., priority 2019, dated 2021).

Experiments:
human neutrophils = assay: MTT cell viability test; assay type: cell-based; conditions: 1% solution, 24 hours; untreated cells = 100%
Protocol: Human neutrophils were isolated from whole blood samples taken from 10 healthy volunteers (5 men and 5 women, mean age: 34.1 ± 3.7 years) using the EasySep™ Direct human neutrophil isolation kit ([…] Technologies, Vancouver, Canada). After isolation, neutrophils were resuspended at a concentration of 5 * 10^6 cells/ml in Hank's balanced saline solution (37°C) containing 10 mM of HEPES pH 7.4, 1.6 mM Ca^2+ and not Mg^2+.
Cell viability was determined using the MTT test kit (Promega, Madison, WI, USA) according to the manufacturer's protocol (MTT: 3-(4,5-dimethylthiazol-2-yl)-2,5-diphenyltetrazolium bromide). In order to determine the cytotoxicity of the herbal extract of the invention, the cells were incubated with aqueous solutions of the herbal extract of the invention at three different concentrations (1%, 3% and 5%) for 24 hours. The cultures of the control group were not treated and the viability thereof was set to 100%. […] Int J Pharm Sei (2012) 3: 2325-2336]. […] Absorbance was subsequently measured with a microplate reader (Bio-Tek, Winooski, VT, USA) at a test wavelength of 595 nm and a reference wavelength of 690 nm. The optical density (OD) was calculated as the […]. The viability percentage was calculated using the following formula: (OD of treated sample / control OD) x 100.

PGE2 = PGE2 enzyme immunoassay in LPS-stimulated neutrophils; assay type: cell-based, human; conditions: 5 µg/ml of LPS plus test substance 1%, 24 hours
Protocol: Human neutrophils were isolated from whole blood samples taken from 10 healthy volunteers (5 men and 5 women, mean age: 34.1 ± 3.7 years) using the EasySep™ Direct human neutrophil isolation kit ([sequence] Technologies, Vancouver, Canada). After isolation, neutrophils were resuspended at a concentration of 5 * 10^6 cells/ml in Hank's balanced saline solution (37°C) containing 10 mM of HEPES pH 7.4, 1.6 mM Ca^2+ and not Mg^2+.
Experiments were conducted on RPMI medium (RPMI: Rosewell Park Memorial Institute, cation-deficient medium Ca2+ and Mg2+ commonly used for white blood line cells) supplemented with 1% fetal bovine serum (37°C, 5% CO2, 95% humidity) after seeding neutrophils (5x10^5 cells/well) in a 96-well plate.
Evaluation of PGE2 concentrations in each well under six different experimental conditions was conducted using a commercially available competitive PGE2 enzyme immunoassay kit (GE Healthcare, Milwaukee, WI, USA). All tests were conducted three times.

[1] = tested on: patients with mild to moderate osteoarthritis of the knee; assay: Randomised, single-blind, active-controlled pilot clinical study, clinical endpoints (VAS, range of motion, WOMAC); assay type: in vivo, human; conditions: oral 200 mg/day, n = 50; for WOMAC scores Stiffness: range 0-8; for WOMAC scores Pain: range 0-20; for WOMAC scores Physical functionality: range 0-68; for WOMAC scores Total: range 0 to 96
Protocol: (§1) The inclusion criteria were as follows: 1) presence of symptoms for at least one month, 2) number of leukocytes in synovial fluid < 2000/ml, 3) pain on a visual analogue scale (VAS) ≥ 2 at rest and 4) duration of stiffness in the morning ≤ 30 min. The following exclusion criteria were applied: 1) pregnancy or breastfeeding, 2) history of severe renal, hepatic, cardiac, gastrointestinal or haematological diseases, 3) presence of malignant tumours, 4) presence of neurological or psychiatric disorders, 5) atopy or allergic disorders, 6) diabetes mellitus or other endocrine disorders, 7) coagulation disorders, 8) history of peptic ulcer disease, 9) use of corticosteroid in the four weeks prior to the study and 10) use of NSAIDs in the two weeks prior to the study. According to the Kellgren-Lawrence classification system, 61.3% and 38.7% of patients in the study had scores of 1 and 2, respectively.
The study period was two weeks.
Patients (n = 150) were randomised into three study groups (1:1:1 ratio). The randomisation sequence was generated by a special software.
A total of three assessments were performed (at baseline, one week and at the end of the 2-week treatment period).
Clinical endpoints included: • 1) patient's evaluation of the arthritis pain score (VAS) at rest (range: 0-10; where 0 is no pain and 10 is maximum pain), • 2) patient's evaluation of the arthritis pain score (VAS) at movement (range: 0-10; where 0 is no pain and 10 is maximum pain), • 3) joint motion range (degrees) and • 4) WOMAC (Western Ontario and McMaster University) index score [Salaffi et al. Osteoarthritis cartilage 2003; 11: 551-60].
WOMAC score consists of sub-scales that measure pain (range: 0-20; where 0 is no pain and 20 is the maximum pain), stiffness (range: 0-8, where 0 is no stiffness and 8 is the maximum stiffness) and physical functionality (range: 0-68, where 0 is the best functionality and 68 is the worst functionality). The resulting total composite score ranges from 0 to 96.

[2] = Safety in the clinical study (treatment-emergent adverse events, laboratory tests); assay type: in vivo, human; conditions: oral 200 mg/day for 2 weeks, n = 50
Protocol: as §1
Safety was evaluated by recording treatment-emergent adverse events and changes with respect to the baseline in clinical laboratory tests, in vital signs and in objective examinations, all of which were performed during visits at weeks 1 and 2. Clinically relevant changes in laboratory values were defined as: • aspartate aminotransferase (AST) and/or alanine transaminase (ALT) ≥ 3 × upper limit of normal (ULN), • creatinine ≥ 1.3 × ULN, • blood urea nitrogen (BUN) ≥ 2 × ULN, • decrease in haematocrit value ≥ 5 percentage points with respect to the baseline and • decrease in haemoglobin value ≥ 2 g/dl from baseline.

substance P = assay: Serum substance P levels (ELISA) in the clinical study; conditions: oral 200 mg/day, n = 50

Compound: Cc1ccc(-c2cc(C(F)(F)F)nn2-c2ccc(S(N)(=O)=O)cc2)cc1 [Celecoxib]
- cell viability (MTT), % of the control value (human neutrophils): 90 ± 2%
- PGE2 levels (PGE2): 19.21 ± 2.39 pg/well
- Pain at motion, VAS (0-10) ([1]; Baseline): 3.8 ± 0.6
- Pain at rest, VAS (0-10) ([1]; Baseline): 2.9 ± 0.4
- Range of motion (degrees) ([1]; Baseline): 134 ± 10 degrees
- WOMAC scores Stiffness ([1]; Baseline): 1.4 ± 0.3
- WOMAC scores Pain ([1]; Baseline): 5.7 ± 0.8
- WOMAC scores Physical functionality ([1]; Baseline): 20.5 ± 3.2
- WOMAC scores Total ([1]; Baseline): 27.6 ± 3.8
- Pain at motion, VAS (0-10) ([1]; End of study (2 weeks)): 2.2 ± 0.4
- Pain at rest, VAS (0-10) ([1]; End of study (2 weeks)): 1.5 ± 0.4
- Range of motion (degrees) ([1]; End of study (2 weeks)): 173 ± 19 degrees
- WOMAC scores Stiffness ([1]; End of study (2 weeks)): 0.7 ± 0.1
- WOMAC scores Pain ([1]; End of study (2 weeks)): 3.0 ± 0.9
- WOMAC scores Physical functionality ([1]; End of study (2 weeks)): 11.4 ± 1.7
- WOMAC scores Total ([1]; End of study (2 weeks)): 15.1 ± 2.2
- Pain at motion, VAS (0-10) ([1]; One week): 2.9 ± 0.5
- Pain at rest, VAS (0-10) ([1]; One week): 2.0 ± 0.3
- Range of motion (degrees) ([1]; One week): 160 ± 15 degrees
- WOMAC scores Stiffness ([1]; One week): 1.0 ± 0.2
- WOMAC scores Pain ([1]; One week): 4.1 ± 0.9
- WOMAC scores Physical functionality ([1]; One week): 14.6 ± 2.1
- WOMAC scores Total ([1]; One week): 19.7 ± 2.9
- Gastrointestinal adverse events: Constipation [2]: 2 (4%) number of patients (percentages in brackets)
- Gastrointestinal adverse events: Nausea [2]: 2 (4%) number of patients (percentages in brackets)
- Other adverse events: Headache [2]: 3 (6%) number of patients (percentages in brackets)
- Other adverse events: Itching [2]: 1 (2%) number of patients (percentages in brackets)
- changes with respect to the baseline in laboratory safety tests [2]: no changes with respect to the baseline
- SP (serum substance P) (substance P; Baseline): 436 ± 95 pg/mL
- SP (serum substance P) (substance P; End of study (2 weeks)): 299 ± 64 pg/mL
- SP (serum substance P) (substance P; One week): 358 ± 78 † pg/ml
